In patent US11826369B2, “Targeting the TLK1/NEK1 axis in prostate cancer” (Board of Supervisors of Louisiana State University and …, priority 2019, dated 2023):
“And” between values parts separate entries of the source, which are not always exact repeats. Equal entries are not always repeated. “Also recorded” adds a separate entry of the source.

Tests used:
[1] = test system: LNCaP, C4-2B, 22RV1, DU14, PC3, TRAMP-C2; test: Cell proliferation assays of PCa cell line panel; type: cell-based; details: androgen containing medium (FBS)
Description: (§1) All experiments were conducted in triplicates. […] The cells were grown for 2-3 weeks and stained with crystal violet. All experiments were conducted in triplicates. […] The cell lines used were human “normal” RWPE-1, LNCaP, (LNCaP-derivative) C4-2B, 22RV1, DU14, PC3, and mouse TRAMP-C2. FIGS. 11C and 11D show cell proliferation of LNCaP and TRAMP-C2 were determined during a 3 days incubation with different concentration of J54 (MTS assay). All experiments were conducted in triplicates. […] Representative analysis of two independent experiments are shown.
(§2) J54 in combination with anti-androgen (Bicalutamide) induces apoptosis in AS PCa cells. […] The inventors thus tested the same panel of cells in androgen containing medium (FBS) by proliferation assays. […] Note that VCaP cells were 60% inhibited by J54 alone, consistent with their elevated replication stress-driven DDR and checkpoint activation (FIG. 12E), which when suppressed with J54 could lead to apoptosis. Clonogenic assays are unable to distinguish the effects of a DNA damaging agent, which can result in either an impaired or delayed resumption of growth (cell division) or loss of viability due to increased killing of the initial population. The inventors thus measured in LNCaP and TRAMP-C2 cells the early change in cell number (MTT assay) over 72 h with J54 alone.

[2] = test system: VCaP cells; test: Clonogenic assay, VCaP; type: cell-based; details: J54 alone
Description: as §1, §2

[3] = test system: LNCaP and TRAMP-C2 cells; test: Early change in cell number (MTT assay) over 72 h; type: cell-based; details: J54 alone
Description: as §1, §2

[4] = test system: RWPE1 (normal prostate) cell line; test: Cell proliferation assay, normal prostate cells; type: cell-based, human
Description: as §1, §2

[5] = test system: LNCaP, VCaP and TRAMP-C2; test: Clonogenic assays of AS PCa cells; type: cell-based
Description: as §1, §2

[6] = Pharmacokinetics, plasma distribution after IP injection; type: in vivo, mice
Text: FIGS. 18A-18C show pharmacokinetics plasma distribution of J54.
(§3) The inventors sought to establish if the addition of J54 could suppress the resurgence of tumor growth of LNCaP xenografts and their latter conversion to CRPC. Following formation of sizeable tumors (˜200 mm^3), castration or anti-androgens arrest the progression of LNCaP xenografts for some time (2-3 weeks), while subsequently the tumors start growing again at an accelerated rate which is refractory to ADT (AI). Therefore, the inventors injected LNCaP cells in matrigel in both flanks of NOD-SCID mice, and then randomly assigned them to four treatment groups (n=5 per group×2 independent experiments), as shown in FIGS. 13A-13C. […] The inventors should also point out that the inventors treated the mice with J54 only bi-weekly due to the favorable pharmacokinetics, where maximal plasma concentration of 100 ng/ml ([…]) were reached 2 h after IP injection, and was still present at −6 ng/ml (6 μM) after 24 h (FIG. 18A-18C).

[7] = test system: LNCaP xenografts; test: LNCaP xenograft model; type: in vivo, NOD/SCID mice; details: IP bi-weekly
Description: Treatment started 19 days after implantation when the tumors measure ˜200 mm^3. Two independent experiment with 5 mice per group were carried out. J54 and Bicalutamide was dissolved in DMSO and diluted in corn oil 1:10 and administered IP bi-weekly. Sectioning and processing of the tissues were carried out in the FWCC Histology Service, using automated processes and equipment to provide uniform and standardized results. Indirect labeling was with ABC Elite: RTU Vectastain Elite Reagent, Vector #PK-7100; DAB: ImmPact DAB, Vector #SK-4105. Light counterstaining was done with hematoxylin. […] Note the weak pNek1 stain in the tumor from mice treated with J54, in contrast to the increase seen with BIC.
LNCaP Xenograft Model and Immunohistochemistry (IHC): All animals used in this study were approved by LSUHSC IACUC and following ARRIVE guidelines. Male NOD/SCID mice (5 per group) were purchased from Jackson labs. LNCaP cells were injected as described earlier. Mice were treated IP bi-weekly with J54 (5 mg/kg body weight—dose estimation derived from pharmacokinetics study) and/or Bicalutamide (100 mg/kg).
as §3

c1ccc2c(c1)Sc1ccccc1N2CCN1CCOCC1 [J54, 4-(2-(10H-phenothiazin-10-yl)ethyl) morpholine]
concentration of maximal efficacy [1]: around 18 μM
inhibition of proliferation [1]: weak dose-dependent inhibition
inhibition of colony formation [2]: 60%
change in cell number [3]: actual loss in cell counts in relation to the dose
sensitivity of normal cells [4]: insensitive; also recorded: non-toxic to normal cells
growth of colonies of LNCaP cells cultured with BIC [5]: suppresses the growth of androgen-dependent colonies
maximal plasma concentration ([6]; IP injection): 100 ng/ml and 35 μM
time of maximal plasma concentration ([6]; after IP injection): 2 h
concentration at 24 h ([6]; mouse, plasma, IP injection): 6 µM
tumor weight ([7]; end of treatment): significant suppression
tumor growth ([7]; J54 5 mg/kg, Bicalutamide 100 mg/kg): significant suppression
